This assay relates to HTT-ΔN17-46Q-GFP. The assay can be described thus: cell-based HTT seeding assay (ΔN17-1E cells). The following applies: for induction of intracellular HTT-ΔN17-46Q-GFP aggregation by extracellularly applied seeds: ΔN17-1E (HEK293) cells, substance applied as seed, FIG. 4. Details: species or system human. The source says: Described herein is the development of a cell-based HTT seeding assay. A DNA construct encoding Exon1 of mutant human HTT with a 46 polyQ repeat was designed (FIG. 1C). This mutant HTT was engineered to delete amino acid residues 2-16 and was fused with a green fluorescent protein (GFP) at its C-terminus, named HTT-ΔN17-46Q-GFP hereafter. The HTT-ΔN17-46Q-GFP was then cloned into a pcDNA3 vector and transfected into HEK293 cells. Clones of stably transfected cells expressing HTT-ΔN17-46Q-GFP were selected to generate individual cell lines. Expression of the transgene in the cell lines was characterized to confirm its morphology, expression level and subcellular localization. Line 1E, named ΔN17-1E cells, was selected based on it moderate transgene expression with minimal protein aggregates at the baseline. Based on this cell line, a cell-based HTT seeding assay was developed. Extracellular application of preformed HTT aggregates or biosamples from HD patients as “seeds”, to ΔN17-1E cells could induce intracellular aggregation of HTT-ΔN17-46Q-GFP proteins (FIG. 1 through FIG. 3). This seeding-induced aggregation event is similar to in vitro HTT aggregation, which preformed aggregates, or seeds, nucleates and facilitates the aggregation of HTT exon 1 monomers. Moreover, this activity is specific to utilizing aggregates of polyQ proteins since neither aggregates of β-amyloid and Tau nor biosamples from AD and PD patients could elicit HTT-ΔN17-46Q-GFP aggregation (FIG. 4). The level of induced aggregates positively correlates with the amount of recombinant seeds added. Importantly, the seedability of the biosamples also correlates with the disease stage of the patients. Currently, the assay has been optimized to be performed in a high-throughput format, making it more capable with large quantity of samples. Thus, this cell-based seeding assay could be extremely useful for detecting seedible species in the biosamples, which is shown by us to increase as the disease progressing, and thus could be used as a biomarker for HD diagnosis and clinical trials, as well as for drug discovery.

As for “phosphorylated tau: phosphorylated tau used as non-HTT seed control [reference compound]”, the “induction of intracellular HTT-ΔN17-46Q-GFP aggregation by extracellularly applied seeds” value is recorded as “did not elicit the aggregation”.

In the case of “DNAJB6: DNAJB6 of the Hsp40 family, overexpressed in ΔN17 cells by transit transfection”, the “HTT-ΔN17-46Q-GFP aggregation induced by HD CSF, with overexpression” value (ΔN17 cells, overexpression by transit transfection, induced by HD CSF, FIG. 10) is listed as “dramatically reduced”. Also, the “HTT-ΔN17-46Q-GFP aggregation induced by preformed mHTT-exon1 seeds, with overexpression” value (ΔN17 cells, overexpression by transit transfection, induced by preformed mHTT-exon1 seeds, FIG. 10) was “dramatically reduced”. In the case of “fibrillar Aβ: fibrillar Aβ used as non-HTT seed control [reference compound]”, the “induction of intracellular HTT-ΔN17-46Q-GFP aggregation by extracellularly applied seeds” value is listed as “did not elicit the aggregation”.

Values taken from patent publication US20200255487A1, “A Cell-Based Seeding Assay for Huntingtin Aggregation” (THE REGENTS OF THE UNIVERSITY OF CALIFORNIA, priority 2017, published 2020).
